Reference: patent US9044427B2, “Compositions and methods for prevention and treatment of wounds” (ONCONOVA THERAPEUTICS, INC, priority 2010, dated 2015)
Several values for one entry are separate records, joined by “and”; a condition that tells them apart may be missing. Equal entries are not always repeated. Entries after “also recorded” stand apart in the source; their conditions may differ. Marks after values point to notes of the source that are not given here.

System: mouse model of cutaneous injury
Assay: Wound healing in skin, mouse model of cutaneous injury (skin punch)
Format: in vivo
Settings: for CT50 (Days), wound half-closure time, Mean: linear regression
Experimental: Test substance ON 01210.Na Solution was evaluated for possible effects on wound healing in a mouse model of cutaneous injury. The test substance was administered subcutaneously (SC) in two dosing regimens: the first was 24 hours and 15 minutes before skin punch, and the second was 4 hours and 15 minutes before skin punch. Percent closure of the wound (%) was determined on days 1, 3, 5, 7, 9, 11, 13, 15, 17, 19, 21 and 22, and the half closure time (CT50) was then obtained. One-way ANOVA followed by Dunnett's test was used to determine significant difference between vehicle control and treated groups at individual time points. Significant differences are considered at P<0.05 level.
ON 01210.Na Solution was provided by Onconova Therapeutics Inc in a preformulated form. Test substance was administered subcutaneously (SC) in two dosing patterns, the first was 24 hours and 15 minutes before skin punch, and the second was 4 hours and 15 minutes before skin punch. The dosing time of vehicle (ON 01210.Na Placebo Solution) was given as the second pattern. The dosing volume was 10 mL/kg.
Animals: Male ICR mice weighing 24±2 g were provided by BioLasco Taiwan (under Charles River Laboratories Technology Licensee). Test animals were housed individually in a cage (29×18×13 cm) after skin injury through experiment. All animals were maintained in a controlled temperature (21-23° C.) and humidity (50%-70%) environment with 12 hours light/dark cycles for at least three days in MDS Pharma Services—Taiwan Laboratory prior to use. Free access to standard lab chow for Mice [MF-18 (Oriental Yeast Co., Ltd., Japan)] and reverse osmosis (RO) water was granted. All aspects of this work including housing, experimentation and disposal of animals were performed in general accordance with the Guide for the Care and Use of Laboratory Animals (National Academy Press, Washington, D.C., 1996).
Groups of 8 ICR male mice weighing 24±2 g were used. During the study, the tested animals were housed in individual cages. Under hexobarbital (90 mg/kg, IP) anesthesia, the shoulder and back region of each animal was shaved. A sharp punch (ID 12 mm) was applied to remove the skin including panniculus carnosus and adherent tissues. Test substance was administered subcutaneously in two dosing patterns, the first was 24 hours and 15 minutes before skin punch, and the second was 4 hours and 15 minutes before skin punch the dosing time of vehicle (ON 01210.Na Placebo Solution) was given as the second dosing pattern. The wound area, traced onto clear plastic sheets, was measured by use of an Image—ProPlus (Media Cybernetics, Version 4.5.0.29) on days 1, 3, 5, 7, 9, 11, 13, 15, 17, 19, 21 and 22. The percent closure of the wound (%) was calculated, and wound half-closure time (CT50) was analyzed by linear regression using Graph-Prism (Graph Software USA). One-way ANOVA followed by Dunnett's test was applied for comparison between the treated and vehicle groups at each measurement time point. Differences are considered statistically significant at P<0.05.
Test substance was administered subcutaneously (SC) in two dosing patterns, the first was 24 hours and 15 minutes before skin punch, and the second was 4 hours and 15 minutes before skin punch; the dosing time of vehicle (ON 01210.Na Placebo Solution) was given as the second pattern. The wound closure (%) and wound half-closure time (CT50) were determined. One-way ANOVA followed by Dunnett's test was applied for comparison between the treated and vehicle groups. *P<0.05, vs. vehicle control.

[1] = 500 mg/kg × 2 SC (−4 hr, −15 min), individual surviving mice N 1-6, sodium salt
[2] = 500 mg/kg × 2 SC (−4 hr, −15 min), individual surviving mice N 1-6
[3] = 500 mg/kg × 2 SC (−4 hr, −15 min before skin punch), mean of surviving animals, sodium salt
[4] = 500 mg/kg × 2 SC (−4 hr, −15 min before skin punch), mean of surviving animals
[5] = 500 mg/kg × 2 SC (−24 hr, −15 min), individual mice N 1-8
[6] = 500 mg/kg × 2 SC (−24 hr, −15 min), individual mice N 1-8, sodium salt
[7] = 500 mg/kg × 2 SC (−24 hr, −15 min before skin punch), group mean
[8] = 500 mg/kg × 2 SC (−24 hr, −15 min before skin punch), group mean, sodium salt

SMILES: O=C([O-])c1ccc(/C=C/S(=O)(=O)Cc2ccc(Cl)cc2)cc1.[Na+] [ON 01210.Na Solution, (E)-4-carboxystyryl-4-chlorobenzylsulfone sodium salt]
- Effect on wound closure vs vehicle control (500 mg/kg SC, 4 hr and 15 min before skin punch, surviving animals, P<0.05 vs vehicle): significant increase in wound closure on days 13 and 15
- Effect on wound closure / wound healing vs vehicle control (500 mg/kg SC, 24 hours and 15 minutes before skin punch, P<0.05 vs vehicle, sodium salt): promoted significant increase in wound closure on days 3, 5, 7, 13, 15 and 17; also recorded: promoted wound healing with significant reduction in CT50 value
- The Closure of Wound (%), Individual Value, Day 1 (500 mg/kg × 2 SC (−4 hr, −15 min), individual mice N 1-8): 0.0%
- The Closure of Wound (%), Individual Value, Day 3 [1]: 27.9% and 13.0% and 31.4% and 13.4% and 40.5% and 11.7%
- The Closure of Wound (%), Individual Value, Day 5 [1]: 40.2% and 23.3% and 37.2% and 24.9% and 48.5% and 18.4%
- The Closure of Wound (%), Individual Value, Day 7 [1]: 48.0% and 32.9% and 41.9% and 36.2% and 62.4% and 34.6%
- The Closure of Wound (%), Individual Value, Day 9 [1]: 59.0% and 49.2% and 60.3% and 52.9% and 76.3% and 43.0%
- The Closure of Wound (%), Individual Value, Day 11 [1]: 65.3% and 68.7% and 73.5% and 77.1% and 79.6% and 66.1%
- The Closure of Wound (%), Individual Value, Day 13 [1]: 84.2% and 90.4% and 90.3% and 78.8% and 93.1% and 88.0%
- The Closure of Wound (%), Individual Value, Day 15 [1]: 93.4% and 94.6% and 97.2% and 100.0% (2×) and 97.6%
- The Closure of Wound (%), Individual Value, Day 17 [1]: 96.7% and 100.0% (5×)
- The Closure of Wound (%), Individual Value, Day 19 [2]: 100.0%
- The Closure of Wound (%), Individual Value, Day 21 [2]: 100.0%
- The Closure of Wound (%), Individual Value, Day 22 [2]: 100.0%
- CT50 (Days), Individual Value [1]: 8.0 days and 9.2 days and 7.7 days and 8.9 days and 5.8 days and 9.4 days
- Animal died (entry in individual wound-closure tables) (500 mg/kg × 2 SC (−4 hr, −15 min), mice N 7 and 8, Days 3-22, sodium salt): died and Died
- The Closure of Wound (%) Day 1, Mean (500 mg/kg × 2 SC (−4 hr, −15 min before skin punch), group mean): 0.0%
- The Closure of Wound (%) Day 3, Mean [3]: 23.0%
- The Closure of Wound (%) Day 5, Mean [4]: 32.1%
- The Closure of Wound (%) Day 7, Mean [4]: 42.7%
- The Closure of Wound (%) Day 9, Mean [4]: 56.8%
- The Closure of Wound (%) Day 11, Mean [4]: 71.7%
- The Closure of Wound (%) Day 13, Mean [3]: 87.5%
- The Closure of Wound (%) Day 15, Mean [3]: 97.1%
- The Closure of Wound (%) Day 17, Mean [4]: 99.4%
- The Closure of Wound (%) Day 19, Mean [4]: 100.0%
- The Closure of Wound (%) Day 21, Mean [4]: 100.0%
- The Closure of Wound (%) Day 22, Mean [4]: 100.0%
- CT50 (Days), wound half-closure time, Mean [3]: 8.2 ± 0.5 days and 8.2 days
- The Closure of Wound (%), Individual Value, Day 1 [5]: 0.0%
- The Closure of Wound (%), Individual Value, Day 3 [6]: 36.8% and 15.2% and 28.2% and 23.1% and 21.6% and 42.8% and 29.4% and 41.1%
- The Closure of Wound (%), Individual Value, Day 5 [6]: 51.5% and 35.7% and 39.1% and 45.1% and 37.7% and 35.6% and 40.9% and 44.4%
- The Closure of Wound (%), Individual Value, Day 7 [6]: 49.7% and 47.0% and 45.6% and 56.9% and 46.8% and 60.4% and 52.0% and 55.8%
- The Closure of Wound (%), Individual Value, Day 9 [6]: 74.1% and 60.1% and 54.4% and 63.6% and 54.1% and 79.4% and 64.0% and 69.1%
- The Closure of Wound (%), Individual Value, Day 11 [6]: 79.5% and 81.7% and 70.4% and 76.3% and 64.4% and 84.4% and 71.4% and 80.8%
- The Closure of Wound (%), Individual Value, Day 13 [6]: 84.4% and 90.6% and 83.7% and 89.6% and 85.8% and 95.8% and 80.7% and 95.6%
- The Closure of Wound (%), Individual Value, Day 15 [6]: 89.8% and 100.0% (5×) and 97.6% and 88.8%
- The Closure of Wound (%), Individual Value, Day 17 [5]: 100.0%
- The Closure of Wound (%), Individual Value, Day 19 [5]: 100.0%
- The Closure of Wound (%), Individual Value, Day 21 [5]: 100.0%
- The Closure of Wound (%), Individual Value, Day 22 [6]: 100% (2×) and 100.0% (6×)
- CT50 (Days), Individual Value [6]: 6.6 Days and 8.0 Days (2×) and 7.2 Days and 8.3 Days and 6.0 Days and 7.6 Days and 6.2 Days
- The Closure of Wound (%) Day 1, Mean [7]: 0.0%
- The Closure of Wound (%) Day 3, Mean [8]: 29.8%
- The Closure of Wound (%) Day 5, Mean [8]: 41.3%
- The Closure of Wound (%) Day 7, Mean [8]: 51.8%
- The Closure of Wound (%) Day 9, Mean [7]: 64.8%
- The Closure of Wound (%) Day 11, Mean [7]: 76.1%
- The Closure of Wound (%) Day 13, Mean [8]: 88.3%
- The Closure of Wound (%) Day 15, Mean [8]: 97.0%
- The Closure of Wound (%) Day 17, Mean [8]: 100.0%
- The Closure of Wound (%) Day 19, Mean [7]: 100.0%
- The Closure of Wound (%) Day 21, Mean [7]: 100.0%
- The Closure of Wound (%) Day 22, Mean [7]: 100.0%
- CT50 (Days), wound half-closure time, Mean [8]: 7.2 ± 0.3 days and 7.2 days
- Animals died (mortality) (500 mg/kg × 2 SC given 4 hr and 15 min before skin punch (interval 3 hr 45 min), mice, cause of death not known, sodium salt): two out of eight animals died; also recorded: (2/8 died)
- Wound healing, percentage of wound closure (FIG. 1) (pre-treated 24 hour or 4 hour prior to wound vs placebo): significant improvement in wound healing
